Results reported in patent publication US10081630B2, “Radioactive halogen-labeled pyrido [1,2-A] benzimidazole derivative compound” (KYOTO UNIVERSITY, priority 2015, dated 2018).

What was measured:
[1] = test system: tau accumulated in the brain with AD; experiment: In vitro autoradiography using autopsied brain tissue of Alzheimer's disease patient; type: binding, human
Experimental: (Evaluation 1) In Vitro Autoradiography Using Autopsied Brain Tissue of Alzheimer's Disease Patient (1) In Vitro Autoradiography
Autopsied brain tissue sections of an Alzheimer's disease (AD) patient (sections from a frontal lobe site and a temporal lobe site, 6 μm) were used, which were provided from Graduate School of Medicine, Kyoto University and National Cerebral and Cardiovascular Center Hospital. Deparaffinization treatment was performed by washing with xylene (15 min×2), ethanol (1 min×2), a 90 vol % aqueous ethanol solution (1 min×1), an 80 vol % aqueous ethanol solution (1 min×1), a 70 vol % aqueous ethanol solution (1 min×1), and purified water (2.5 min×2). A 10 vol % aqueous ethanol solution of each radioactive iodine-labeled BIP derivative compound (370 kBq/mL) obtained by the method shown in Example 7 was added thereto, and the tissue sections were incubated at room temperature for 2 hours. The tissue sections were washed with a 50 vol % aqueous ethanol solution (1 hr×1), then exposed to an imaging plate (BAS-SR2025 manufactured by Fujifilm Corp.), and analyzed using a bioimaging analyzer (bioimaging analyzer BAS-5000 manufactured by Fujifilm Corp.). Multi Gauge manufactured by Fujifilm Corp. was used in quantitative analysis.
FIGS. 5E and 5F show the results obtained using [^125I]BIP-NMe2. FIGS. 5G and 5H show the results obtained using [^125I]BIP-OMe. FIGS. 5I and 5J show the results obtained using [^125I]BIP-Me. FIGS. 5E, 5G, and 5I show the results obtained using the brain tissue section of the frontal lobe. FIGS. 5F, 5H, and 5J show the results obtained using the brain tissue section of the temporal lobe.
Tau and Aβ were immunostained using sections adjacent to the autopsied AD brain tissue sections used in autoradiography. An anti-phosphorylated tau monoclonal antibody (AT8, manufactured by Thermo Fisher Scientific Inc.) was used as a primary antibody in the immunostaining of tau, and an anti-Aβ1-42 monoclonal antibody (BC05, manufactured by Wako Pure Chemical Industries, Ltd.) was used as a primary antibody in the immunostaining of Aβ. Deparaffinization treatment was performed by washing with xylene (15 min×2), ethanol (1 min×2), a 90 vol % aqueous ethanol solution (1 min×1), an 80 vol % aqueous ethanol solution (1 min×1), a 70 vol % aqueous ethanol solution (1 min×1), and purified water (2.5 min×2). The antigens were retrieved by autoclaving (15 min) in a 0.01 mol/L citrate buffer solution (pH 6.0) and formic acid treatment (5 min). The tissue sections were washed with running water (5 min) and then washed with PBS-Tween 20 (2 min×1). The tissue sections were reacted with primary antibody solutions at room temperature for 1 hour and then washed with PBS-Tween 20 (5 min×3). The tissue sections were reacted with Histofine Simple Stain MAX-PO (MULTI) (manufactured by Nichirei Biosciences Inc.) at room temperature for 30 minutes and then washed with PBS-Tween 20 (3 min×3) and TBS (5 min×1). Finally, the tissue sections were reacted with a DAB solution at room temperature for 1 minute. The tissue sections were washed with distilled water (1 min×1) to terminate the reaction. The brain tissue sections were mounted on slides and then observed under a microscope (BZ-9000 manufactured by Keyence Corporation).
FIGS. 5A and 5B show the results obtained using the brain tissue section of the frontal lobe. FIGS. 5C and 5D show the results obtained using the brain tissue section of the temporal lobe. FIGS. 5A and 5C show the results of immunostaining with the antibody against tau. FIGS. 5B and 5D show the results of immunostaining with the antibody against Aβ.

[2] = Evaluation of in vivo radioactivity distribution in normal mouse; details: normal ddY male mice, tail vein; for radioactivity distribution, Blood / radioactivity distribution, Brain / radioactivity distribution, Heart / radioactivity distribution, Intestine / radioactivity distribution, Kidney / radioactivity distribution, Liver / radioactivity distribution, Lung / radioactivity distribution, Pancreas / radioactivity distribution, Spleen / radioactivity distribution, Stomach / radioactivity distribution, Thyroid gland: mean (SD)
Experimental: (Evaluation 2) Evaluation of In Vivo Radioactivity Distribution in Normal Mouse
Each compound of [^125I]BIP-NMe2, [^125I]BIP-OMe, and [^125I]BIP-Me synthesized according to the method shown in Example 7 was diluted with saline containing 10 vol % ethanol and 0.1 vol % Tween 80. Each radioactive iodine-labeled BIP derivative compound was administered to a group of 5-week-old ddY male mice (26 to 28 g; each group involved 5 mice) from the tail veins thereof at 19.6 to 29.4 kBq (100 μL) per mouse. After 2, 10, 30, or 60 minutes, the mice were slaughtered. After blood collection, the organs were taken out, and their weights and radioactivity were measured.
In Tables 2 to 4, the numerical values shown in the column “Time after administration” are means of % ID for the stomach and the thyroid gland and means of % ID/g for the other tissues with standard deviation (SD) shown in parenthesis.

SMILES: COc1ccn2c(c1)nc1cc([125I])ccc12 [[^125I]BIP-OMe, 7-[^125I]iodo-3-methoxypyrido[1,2-a]benzimidazole]
- radioactivity accumulation in the brain tissue section of the frontal lobe ([1]; AD patient autopsied brain section, frontal lobe, 370 kBq/mL, 2 hours room temperature): none
- radioactivity accumulation in the brain tissue section of the temporal lobe ([1]; AD patient autopsied brain section, temporal lobe, 370 kBq/mL, 2 hours room temperature): exhibited radioactivity accumulation in only the brain tissue section of the temporal lobe
- nonspecific binding to the brain white matter ([1]; AD patient autopsied brain sections): low
- visualization of tau (autoradiography compared with tau and Aβ immunostaining) ([1]; AD patient temporal lobe section, adjacent sections immunostained (AT8, BC05)): clearly visualizes tau accumulated in the brain with AD
- clearance from the brain [2]: rapid clearance from the brain
- transfer to the brain early after administration [2]: high transfer to the brain
- radioactivity distribution, Blood ([2]; 2 min after administration): 5.41(0.40) % ID/g
- radioactivity distribution, Brain ([2]; 2 min after administration): 4.30(0.41) % ID/g
- radioactivity distribution, Heart ([2]; 2 min after administration): 5.17(0.27) % ID/g
- radioactivity distribution, Intestine ([2]; 2 min after administration): 2.94(0.15) % ID/g
- radioactivity distribution, Kidney ([2]; 2 min after administration): 8.66(0.73) % ID/g
- radioactivity distribution, Liver ([2]; 2 min after administration): 17.8(3.98) % ID/g
- radioactivity distribution, Lung ([2]; 2 min after administration): 6.09(0.34) % ID/g
- radioactivity distribution, Pancreas ([2]; 2 min after administration): 4.38(0.30) % ID/g
- radioactivity distribution, Spleen ([2]; 2 min after administration): 3.60(1.10) % ID/g
- radioactivity distribution, Stomach ([2]; 2 min after administration): 2.30(0.33) % ID
- radioactivity distribution, Thyroid gland ([2]; 2 min after administration): 0.10(0.05) % ID
- radioactivity distribution, Blood ([2]; 10 min after administration): 3.39(0.12) % ID/g
- radioactivity distribution, Brain ([2]; 10 min after administration): 0.71(0.14) % ID/g
- radioactivity distribution, Heart ([2]; 10 min after administration): 1.94(0.18) % ID/g
- radioactivity distribution, Intestine ([2]; 10 min after administration): 8.99(1.43) % ID/g
- radioactivity distribution, Kidney ([2]; 10 min after administration): 7.38(1.46) % ID/g
- radioactivity distribution, Liver ([2]; 10 min after administration): 16.2(1.80) % ID/g
- radioactivity distribution, Lung ([2]; 10 min after administration): 3.33(0.24) % ID/g
- radioactivity distribution, Pancreas ([2]; 10 min after administration): 1.59(0.18) % ID/g
- radioactivity distribution, Spleen ([2]; 10 min after administration): 3.16(0.18) % ID/g
- radioactivity distribution, Stomach ([2]; 10 min after administration): 5.47(0.88) % ID
- radioactivity distribution, Thyroid gland ([2]; 10 min after administration): 0.04(0.02) % ID
- radioactivity distribution, Blood ([2]; 30 min after administration): 2.24(0.27) % ID/g
- radioactivity distribution, Brain ([2]; 30 min after administration): 0.17(0.02) % ID/g
- radioactivity distribution, Heart ([2]; 30 min after administration): 0.99(0.08) % ID/g
- radioactivity distribution, Intestine ([2]; 30 min after administration): 16.8(4.30) % ID/g
- radioactivity distribution, Kidney ([2]; 30 min after administration): 5.74(2.30) % ID/g
- radioactivity distribution, Liver ([2]; 30 min after administration): 7.25(1.28) % ID/g
- radioactivity distribution, Lung ([2]; 30 min after administration): 1.76(0.11) % ID/g
- radioactivity distribution, Pancreas ([2]; 30 min after administration): 0.86(0.22) % ID/g
- radioactivity distribution, Spleen ([2]; 30 min after administration): 1.07(0.08) % ID/g
- radioactivity distribution, Stomach ([2]; 30 min after administration): 6.62(1.28) % ID
- radioactivity distribution, Thyroid gland ([2]; 30 min after administration): 0.01(0.00) % ID
- radioactivity distribution, Blood ([2]; 60 min after administration): 1.27(0.15) % ID/g
- radioactivity distribution, Brain ([2]; 60 min after administration): 0.08(0.03) % ID/g
- radioactivity distribution, Heart ([2]; 60 min after administration): 0.52(0.08) % ID/g
- radioactivity distribution, Intestine ([2]; 60 min after administration): 20.1(4.03) % ID/g
- radioactivity distribution, Kidney ([2]; 60 min after administration): 2.20(1.20) % ID/g
- radioactivity distribution, Liver ([2]; 60 min after administration): 4.61(0.35) % ID/g
- radioactivity distribution, Lung ([2]; 60 min after administration): 1.21(0.30) % ID/g
- radioactivity distribution, Pancreas ([2]; 60 min after administration): 0.53(0.13) % ID/g
- radioactivity distribution, Spleen ([2]; 60 min after administration): 0.63(0.10) % ID/g
- radioactivity distribution, Stomach ([2]; 60 min after administration): 5.34(1.23) % ID
- radioactivity distribution, Thyroid gland ([2]; 60 min after administration): 0.01(0.00) % ID
